Data from patent US20210395239A1 (Hoffmann-La Roche Inc., priority 2018, published 2021).

Target: T1, human TLR8 (Homo sapiens, UniProt Q9NR97)
T1 construct: host or cells: HEK293 (HEK-Blue hTLR8)
T1 sequence (Q9NR97 27-1041): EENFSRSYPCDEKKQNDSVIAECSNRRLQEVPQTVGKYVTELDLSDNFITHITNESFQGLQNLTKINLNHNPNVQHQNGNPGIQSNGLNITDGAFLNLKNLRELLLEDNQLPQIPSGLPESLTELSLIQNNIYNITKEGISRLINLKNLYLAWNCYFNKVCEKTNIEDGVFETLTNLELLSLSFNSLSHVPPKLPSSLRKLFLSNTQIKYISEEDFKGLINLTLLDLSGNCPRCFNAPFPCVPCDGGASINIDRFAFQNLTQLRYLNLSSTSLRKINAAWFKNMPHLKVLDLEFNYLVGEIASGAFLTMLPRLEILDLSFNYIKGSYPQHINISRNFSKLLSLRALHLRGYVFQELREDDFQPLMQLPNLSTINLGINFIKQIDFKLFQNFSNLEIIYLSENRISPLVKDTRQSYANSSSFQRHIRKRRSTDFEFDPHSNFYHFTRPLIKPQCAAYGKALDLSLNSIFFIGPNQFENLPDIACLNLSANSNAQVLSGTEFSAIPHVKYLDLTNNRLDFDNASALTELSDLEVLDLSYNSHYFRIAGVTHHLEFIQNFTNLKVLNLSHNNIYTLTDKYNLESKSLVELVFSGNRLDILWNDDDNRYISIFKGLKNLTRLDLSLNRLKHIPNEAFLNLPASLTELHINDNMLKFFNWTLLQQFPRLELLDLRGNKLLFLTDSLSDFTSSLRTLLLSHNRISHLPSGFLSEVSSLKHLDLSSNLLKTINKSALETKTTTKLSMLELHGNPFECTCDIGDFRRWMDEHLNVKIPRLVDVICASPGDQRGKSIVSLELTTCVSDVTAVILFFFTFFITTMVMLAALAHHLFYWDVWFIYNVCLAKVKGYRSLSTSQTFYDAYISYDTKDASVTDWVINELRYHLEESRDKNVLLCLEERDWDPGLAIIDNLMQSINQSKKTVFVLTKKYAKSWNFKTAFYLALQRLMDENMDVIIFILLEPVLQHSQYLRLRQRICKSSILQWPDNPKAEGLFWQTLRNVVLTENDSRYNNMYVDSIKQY
Test: HEK293-Blue-hTLR-8 cells assay (SEAP reporter, R848 stimulation)
Assay type: cell-based
Settings: HEK293-Blue-hTLR8 cells, R848, 20 hrs; read-out: HEK/hTLR8 IC50
Text: HEK293-Blue-hTLR-8 Cells Assay:
A stable HEK293-Blue-hTLR-8 cell line was purchased from InvivoGen (Cat. #: hkb-ht1r8, San Diego, Calif., USA). These cells were originally designed for studying the stimulation of human TLR8 by monitoring the activation of NF-κB. A SEAP (secreted embryonic alkaline phosphatase) reporter gene was placed under the control of the IFN-β minimal promoter fused to five NF-κB and AP-1-binding sites. The SEAP was induced by activating NF-κB and AP-1 via stimulating HEK-Blue hTLR8 cells with TLR8 ligands. Therefore the reporter expression was declined by TLR8 antagonist under the stimulation of a ligand, such as R848, for incubation of 20 hrs. The cell culture supernatant SEAP reporter activity was determined using QUANTI-Blue™ kit (Cat. #: rep-qb1, Invivogen, San Diego, Ca, USA) at a wavelength of 640 nm, a detection medium that turns purple or blue in the presence of alkaline phosphatase.
HEK293-Blue-hTLR8 cells were incubated at a density of 250,000˜450,000 cells/mL in a volume of 170 μL in a 96-well plate in Dulbecco's Modified Eagle's medium (DMEM) containing 4.5 g/L glucose, 50 U/mL penicillin, […], […], 2 mM L-glutamine, 10% (v/v) heat-inactivated fetal bovine serum with addition of 20 μL test compound in a serial dilution in the presence of final DMSO at 1% and 10 μL of 60 uM R848 in above DMEM, perform incubation under 37° C. in a CO2 incubator for 20 hrs. Then 20 μL of the supernatant from each well was incubated with 180 μL Quanti-blue substrate solution at 37° C. for 2 hrs and the absorbance was read at 620˜655 nm using a spectrophotometer. The signaling pathway that TLR8 activation leads to downstream NF-κB activation has been widely accepted, and therefore similar reporter assay was modified for evaluating TLR8 antagonist.

Structure (SMILES)	IC50 [nM]
CO[C@H]1CN(c2nc(C)cc(N3CCN(C[C@H]4CN(c5ccc(C#N)c6nccnc56)C[C@@H](C)O4)CC3)n2)C[C@@H]1N [Example 106, 8-[(2S,6R)-2-[[4-[2-[(3S,4S)-3-amino-4-methoxy-pyrrolidin-1-yl]-6-methyl-pyrimidin-4-yl]piperazin-1-yl]methyl]-6-methyl-morpholin-4-yl]quinoxaline-5-carbonitrile]	1
C[C@@H]1CN(c2ccc(C#N)c3nccnc23)C[C@H](CN2CCN(c3ccnc(N4C[C@H](N)[C@@H](F)C4)n3)CC2)O1 [Example 107, 8-[(2S,6R)-2-[[4-[2-[(3S,4S)-3-amino-4-fluoro-pyrrolidin-1-yl]pyrimidin-4-yl]piperazin-1-yl]methyl]-6-methyl-morpholin-4-yl]quinoxaline-5-carbonitrile]	1
C[C@@H]1CN(c2ccc(C#N)c3ncccc23)C[C@H](CN2CCN(c3ccnc(N4C[C@H](N)[C@@H](F)C4)n3)CC2)O1 [Example 110, 5-[(2S,6R)-2-[[4-[2-[(3S,4S)-3-amino-4-fluoro-pyrrolidin-1-yl]pyrimidin-4-yl]piperazin-1-yl]methyl]-6-methyl-morpholin-4-yl]quinoline-8-carbonitrile]	2
C[C@@H]1CN(c2ccc(C#N)c3nccnc23)C[C@H](CN2CCN(c3ccnc(N4CC[C@H](N)[C@H](F)C4)n3)CC2)O1 [Example 111, 8-[(2S,6R)-2-[[4-[2-[(3R,4S)-4-amino-3-fluoro-1-piperidyl]pyrimidin-4-yl]piperazin-1-yl]methyl]-6-methyl-morpholin-4-yl]quinoxaline-5-carbonitrile]	1
C[C@@H]1CN(c2ccc(C#N)c3nccnc23)C[C@H](CN2CCN(c3ccnc(N4CC[C@@H](N)[C@H](F)C4)n3)CC2)O1 [Example 113, 8-[(2S,6R)-2-[[4-[2-[(3R,4R)-4-amino-3-fluoro-1-piperidyl]pyrimidin-4-yl]piperazin-1-yl]methyl]-6-methyl-morpholin-4-yl]quinoxaline-5-carbonitrile]	1
Cc1cc(N2CCNCC2)nc(N2CCN(C[C@H]3CN(c4ccc(C#N)c5nccnc45)C[C@@H](C)O3)CC2)n1 [Example 114, 8-[(2R,6S)-2-methyl-6-[[4-(4-methyl-6-piperazin-1-yl-pyrimidin-2-yl)piperazin-1-yl]methyl]morpholin-4-yl]quinoxaline-5-carbonitrile]	1
Cc1ccc(N2C[C@H](CN3CCN(c4nccc(N5CCNCC5)n4)CC3)O[C@H](C)C2)c2nccnc12 [Example 116, (2R,6S)-2-methyl-4-(8-methylquinoxalin-5-yl)-6-[[4-(4-piperazin-1-ylpyrimidin-2-yl)piperazin-1-yl]methyl]morpholine]	5
Cc1ccc(N2C[C@H](CN3CCN(c4ccnc(N5CCNCC5)n4)CC3)O[C@H](C)C2)c2nccnc12 [Example 117, (2R,6S)-2-methyl-4-(8-methylquinoxalin-5-yl)-6-[[4-(2-piperazin-1-ylpyrimidin-4-yl)piperazin-1-yl]methyl]morpholine]	7
C[C@@H]1CN(c2ccc(C#N)c3nccnc23)C[C@H](CN2CCN(c3nccc(N4C[C@@H](N)[C@H](F)C4)n3)CC2)O1 [Example 119, 8-[(2S,6R)-2-[[4-[4-[(3R,4R)-3-amino-4-fluoro-pyrrolidin-1-yl]pyrimidin-2-yl]piperazin-1-yl]methyl]-6-methyl-morpholin-4-yl]quinoxaline-5-carbonitrile]	1
CO[C@@H]1CN(c2cc(C)nc(N3CCN(C[C@H]4CN(c5ccc(C#N)c6nccnc56)C[C@@H](C)O4)CC3)n2)C[C@H]1N [Example 121, 8-[(2S,6R)-2-[[4-[4-[(3R,4R)-3-amino-4-methoxy-pyrrolidin-1-yl]-6-methyl-pyrimidin-2-yl]piperazin-1-yl]methyl]-6-methyl-morpholin-4-yl]quinoxaline-5-carbonitrile]	1
CO[C@H]1CN(c2cc(C)nc(N3CCN(C[C@H]4CN(c5ccc(C#N)c6nccnc56)C[C@@H](C)O4)CC3)n2)C[C@H]1N [Example 122, 8-[(2S,6R)-2-[[4-[4-[(3R,4S)-3-amino-4-methoxy-pyrrolidin-1-yl]-6-methyl-pyrimidin-2-yl]piperazin-1-yl]methyl]-6-methyl-morpholin-4-yl]quinoxaline-5-carbonitrile]	1
Cc1cc(N2CC(N)C2)nc(N2CCN(C[C@H]3CN(c4ccc(C#N)c5nccnc45)C[C@@H](C)O3)CC2)n1 [Example 123, 8-[(2S,6R)-2-[[4-[4-(3-aminoazetidin-1-yl)-6-methyl-pyrimidin-2-yl]piperazin-1-yl]methyl]-6-methyl-morpholin-4-yl]quinoxaline-5-carbonitrile]	1

Continued by falling IC50, values first:

IC50 [nM]	Structure (SMILES)
2	COC1CCN(c2nccc(N3CCN(C[C@H]4CN(c5ccc(C#N)c6ncccc56)C[C@@H](C)O4)CC3)n2)CC1N (stereo partly drawn) [Example 109, 5-[(2S,6R)-2-[[4-[2-(3-amino-4-methoxy-1-piperidyl)pyrimidin-4-yl]piperazin-1-yl]methyl]-6-methyl-morpholin-4-yl]quinoline-8-carbonitrile]
1	C[C@@H]1CN(c2ccc(C#N)c3nccnc23)C[C@H](CN2CCN(c3ccnc(N4C[C@@H](N)[C@@H](F)C4)n3)CC2)O1 [Example 108, 8-[(2S,6R)-2-[[4-[2-[(3R,4S)-3-amino-4-fluoro-pyrrolidin-1-yl]pyrimidin-4-yl]piperazin-1-yl]methyl]-6-methyl-morpholin-4-yl]quinoxaline-5-carbonitrile]
1	Cc1cc(N2CCN(C[C@H]3CN(c4ccc(C#N)c5nccnc45)C[C@@H](C)O3)CC2)nc(N2CC(N)C2)n1 [Example 112, 8-[(2S,6R)-2-[[4-[2-(3-aminoazetidin-1-yl)-6-methyl-pyrimidin-4-yl]piperazin-1-yl]methyl]-6-methyl-morpholin-4-yl]quinoxaline-5-carbonitrile]
1	Cc1cc(N2C[C@@H](N)[C@@H](F)C2)nc(N2CCN(C[C@H]3CN(c4ccc(C#N)c5nccnc45)C[C@@H](C)O3)CC2)n1 [Example 115, 8-[(2S,6R)-2-[[4-[4-[(3R,4S)-3-amino-4-fluoro-pyrrolidin-1-yl]-6-methyl-pyrimidin-2-yl]piperazin-1-yl]methyl]-6-methyl-morpholin-4-yl]quinoxaline-5-carbonitrile]
1	C[C@@H]1CN(c2ccc(C#N)c3nccnc23)C[C@H](CN2CCN(c3nccc(N4CC(N)C4)n3)CC2)O1 [Example 118, 8-[(2S,6R)-2-[[4-[4-(3-aminoazetidin-1-yl)pyrimidin-2-yl]piperazin-1-yl]methyl]-6-methyl-morpholin-4-yl]quinoxaline-5-carbonitrile]
1	CO[C@@H]1CN(c2cc(C)nc(N3CCN(C[C@H]4CN(c5ccc(C#N)c6nccnc56)C[C@@H](C)O4)CC3)n2)C[C@@H]1N [Example 120, 8-[(2S,6R)-2-[[4-[4-[(3S,4R)-3-amino-4-methoxy-pyrrolidin-1-yl]-6-methyl-pyrimidin-2-yl]piperazin-1-yl]methyl]-6-methyl-morpholin-4-yl]quinoxaline-5-carbonitrile]
